Key:
[1] = biological target: T1, KinomeScan kinase panel (Homo sapiens, UniProt P36888, D835H); experiment: KinomeScan kinase panel, single concentration 10 µM; type: binding; conditions: FLT3(D835H), 10 µM; read-out: score (%)
T1 construct: purchased DiscoveRx (KinomeScan)
T1 sequence (P36888 27-993 D835H): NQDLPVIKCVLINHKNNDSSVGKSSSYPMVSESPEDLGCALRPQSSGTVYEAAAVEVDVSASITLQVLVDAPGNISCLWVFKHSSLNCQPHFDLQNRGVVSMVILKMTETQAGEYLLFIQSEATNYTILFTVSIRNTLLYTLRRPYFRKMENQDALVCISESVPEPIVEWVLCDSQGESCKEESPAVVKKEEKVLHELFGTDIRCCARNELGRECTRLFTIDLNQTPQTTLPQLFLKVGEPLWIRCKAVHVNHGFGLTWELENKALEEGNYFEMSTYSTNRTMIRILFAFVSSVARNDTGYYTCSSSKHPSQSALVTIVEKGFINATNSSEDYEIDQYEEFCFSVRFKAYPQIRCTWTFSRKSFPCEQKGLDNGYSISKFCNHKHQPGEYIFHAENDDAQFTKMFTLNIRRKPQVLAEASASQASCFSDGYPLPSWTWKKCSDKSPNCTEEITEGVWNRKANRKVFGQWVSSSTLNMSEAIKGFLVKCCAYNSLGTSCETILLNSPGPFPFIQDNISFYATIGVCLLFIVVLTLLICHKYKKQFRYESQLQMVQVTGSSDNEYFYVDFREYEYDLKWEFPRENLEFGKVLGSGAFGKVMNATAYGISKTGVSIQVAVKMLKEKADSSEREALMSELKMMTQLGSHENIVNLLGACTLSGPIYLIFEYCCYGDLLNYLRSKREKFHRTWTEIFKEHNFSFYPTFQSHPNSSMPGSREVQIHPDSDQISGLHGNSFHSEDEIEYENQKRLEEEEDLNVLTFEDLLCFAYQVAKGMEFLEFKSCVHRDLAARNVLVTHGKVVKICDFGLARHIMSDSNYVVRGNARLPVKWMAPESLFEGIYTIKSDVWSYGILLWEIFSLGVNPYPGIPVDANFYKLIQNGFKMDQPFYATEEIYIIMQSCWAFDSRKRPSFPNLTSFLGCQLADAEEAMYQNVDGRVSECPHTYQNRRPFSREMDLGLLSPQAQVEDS

[2] = biological target: T2, KinomeScan kinase panel (Homo sapiens, UniProt Q8WXR4); experiment: as above; type: binding; conditions: MYO3B, 10 µM; read-out: score (%)
T2 construct: purchased DiscoveRx (KinomeScan)
T2 sequence (Q8WXR4 1-1341): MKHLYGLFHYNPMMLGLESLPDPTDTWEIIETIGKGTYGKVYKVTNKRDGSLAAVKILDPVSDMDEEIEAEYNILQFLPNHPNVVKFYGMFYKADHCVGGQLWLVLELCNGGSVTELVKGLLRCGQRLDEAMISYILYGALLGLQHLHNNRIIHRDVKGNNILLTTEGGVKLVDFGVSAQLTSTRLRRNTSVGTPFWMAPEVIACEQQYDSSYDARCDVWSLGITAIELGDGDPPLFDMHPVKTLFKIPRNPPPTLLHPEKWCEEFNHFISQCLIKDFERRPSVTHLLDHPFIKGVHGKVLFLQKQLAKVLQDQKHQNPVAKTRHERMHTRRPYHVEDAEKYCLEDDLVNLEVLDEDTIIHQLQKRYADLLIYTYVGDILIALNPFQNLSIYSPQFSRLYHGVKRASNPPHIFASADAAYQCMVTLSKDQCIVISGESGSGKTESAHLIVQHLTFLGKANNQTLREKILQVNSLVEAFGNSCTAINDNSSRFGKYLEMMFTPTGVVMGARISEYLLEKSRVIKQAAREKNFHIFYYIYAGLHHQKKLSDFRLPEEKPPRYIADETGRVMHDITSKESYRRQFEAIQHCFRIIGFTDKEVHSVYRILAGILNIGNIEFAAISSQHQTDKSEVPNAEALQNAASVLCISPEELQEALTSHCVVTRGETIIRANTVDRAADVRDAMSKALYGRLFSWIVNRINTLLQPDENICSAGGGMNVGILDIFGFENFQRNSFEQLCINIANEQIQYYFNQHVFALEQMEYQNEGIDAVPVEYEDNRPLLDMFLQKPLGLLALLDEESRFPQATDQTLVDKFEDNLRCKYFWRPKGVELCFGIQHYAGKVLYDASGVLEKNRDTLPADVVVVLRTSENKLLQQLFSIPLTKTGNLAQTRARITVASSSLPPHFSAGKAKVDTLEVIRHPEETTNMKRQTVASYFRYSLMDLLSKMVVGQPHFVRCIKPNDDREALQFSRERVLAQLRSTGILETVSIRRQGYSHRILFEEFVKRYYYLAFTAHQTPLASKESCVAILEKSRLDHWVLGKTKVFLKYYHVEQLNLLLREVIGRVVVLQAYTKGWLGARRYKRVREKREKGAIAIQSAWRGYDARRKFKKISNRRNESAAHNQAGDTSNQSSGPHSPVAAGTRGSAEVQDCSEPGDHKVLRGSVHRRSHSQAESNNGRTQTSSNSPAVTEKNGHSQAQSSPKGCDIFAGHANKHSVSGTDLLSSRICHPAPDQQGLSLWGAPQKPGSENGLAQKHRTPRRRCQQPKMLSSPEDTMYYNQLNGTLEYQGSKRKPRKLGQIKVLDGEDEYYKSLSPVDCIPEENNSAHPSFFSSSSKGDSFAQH

| SMILES | remaining binding at 10 µM [1] | remaining binding at 10 µM [2] |
| --- | --- | --- |
| CCN1CCN(Cc2ccc(NC(=O)c3ccc(C)c(C#Cc4cccnc4)c3)cc2C(F)(F)F)CC1 [XMD15-44] | 0.15% | 0% |
| CCN1CCN(Cc2ccc(NC(=O)c3ccc(C)c(/C=C/c4cnc5[nH]ccc5c4Cl)c3)cc2C(F)(F)F)CC1 [HG-6-63-01, (E)-3-(2-(4-chloro-1H-pyrrolo[2,3-b]pyridin-5-yl)vinyl)-N-(4-((4-ethylpiperazin-1-yl)methyl)-3-(trifluoromethyl)phenyl)-4-methylbenzamide] | 0.1% | 30% |
| CCN1CCN(Cc2ccc(NC(=O)c3ccc(C)c(NC(=O)c4cncc(-c5cccs5)c4)c3)cc2C(F)(F)F)CC1 [ALW-II-41-27] | 1.4% | > 30% |
